In patent US6926936B2, “Ink-jet recording sheet with improved ozone resistance” (Felix Schoeller Jr. Foto-und Spezialpapiere GmbH & Co. KG, priority 2002, dated 2005):

Test: Dissociation constant (Kb, pKb) of the water-soluble compounds
Excerpt: The following aqueous solutions were applied onto the dye-fixing layer.

| SMILES | pKb | Kb (dissociation constant) |
| --- | --- | --- |
| O=C([O-])c1ccc(O)cc1.[Na+] [4-Hydroxybenzoic acid Na salt] | 12.1 |  |
| O.O.O.O.O.O.O.O.O.[Na+].[Na+].[Na+].[S-]c1nc([S-])nc([S-])n1 [Trisodium trithiocyanurate nonahydrate] | 3 | 1 × 10^−3 |
